{
  "source": "patent US4831053A",
  "about": "“Composition for prophylaxis and therapy of hepatitis” (Otsuka Pharmaceutical Co., Ltd., priority 1979, dated 1989)",
  "key": {"chronic hepatitis": {"test_system": "chronic hepatitis", "assay": "Clinical data: patient with chronic hepatitis, GOT, GPT and serum bilirubin before and after administration", "assay_type": "in vivo", "details": "human, oral, about 500 mg twice a day", "procedure": "This treatment was continued for 2 months.\nThe levels of glutamic oxalacetic transaminase (GOT), glutamic pyruvic transaminase (GPT) and serum bilirubin (SB) were determined according to the conventional methods described in Am. J. Clin. Path., 28, 56-63 (1957) (for GOT and GPT) and in J. Biol. Chem., 119, 481-490 (1937) (for SB), and compared with the data obtained before the administration, as shown in Table below."}, "complement": {"test_system": "complement", "assay": "Anti-complement activity", "procedure": "A 30-liter jar fermentor was charged with 20 liters of a culture medium of the above formulation, and one flask of the resulting seed culture was cultivated in the culture medium at 28° C. for 5 days with stirring at 300 rpm at an aeration rate of 1 liter per liter of the culture medium per minute. The resulting culture broth was centrifuged at a speed of 8,000 rpm to remove the microbial cells. To the supernatant liquid was added 5 liters of methanol, and the mixture was stirred and then allowed to stand for 3 hours. The mixture was centrifuged and the solid material was removed. The supernatant was extracted with an equal quantity, by volume, of ethyl acetate. The solvent of the ethyl acetate layer was distilled off under reduced pressure. The residue was dissolved in methanol, and passed through a column of activated carbon. The eluate was concentrated to dryness under reduced pressure. The dried mass was dissolved in a mixture of chloroform and ethyl acetate (1:1, v/v) and gel-filtered through a column of Sephadex LH-20. […] The compound had the following physicochemical characteristics."}, "[1]": {"test_system": "fulminant hepatitis (Schwarzman hepatitis)", "assay": "Schwarzman hepatitis (endotoxin-induced fulminant hepatitis): serum GOT and LDH levels, liver sections", "assay_type": "in vivo, S.D. strain rats", "procedure": "The test for evaluating the prophylactic and therapeutic effect of the compound represented by the formula (I) or (II) was conducted in accordance with the method of Mori et al., Kanzo, Vol. 17, pp. 580-589 (1976), using S.D. strain rats having a body weight of about 300 g as test animals, and causing fulminant hepatitis (Schwarzman hepatitis) to occur. More particularly, 4 test groups, each consisting of 5 S.D. strain rats, were administered 0.1 mg/body of endotoxin (LPS: E. coli 0.26: B6, a product of Difco Co.) peritoneally (by injection), and after 48 hours the same endotoxin preparation was administered by injection to each group at a dosage of 0.05, 0.2, 0.5 or 1.2 mg/body for boostering. On the other hand, 5 mg/body of the active ingredient of the agent of this invention was administered peritoneally by injection once a day for 6 days. This treatment was initiated 2 days before the first administration of endotoxin took place and ended on the day after the second administration of endotoxin for boostering. The test animals were victimized (i.e., destroyed and analyzed) 48 hours after the second administration of endotoxin, and the levels of GOT and LDH in the serum of the victimized rats were determined using a UV method described in American Journal of Clinical Pathology, Vol. 47, pp. 419-428 (1967) and Cancer Research, Vol. 14, pp. 513-515 (1954). In addition, degree of occurrence of hepatic necrosis and distribution of endotoxin in the liver were obseved microscopically using sections of liver of the victimized animals. The compound obtained in Synthesis Example 2 was used as the active ingredient. The same procedure was repeated on animals of 4 control groups which were not administered the active ingredient. The levels of GOT and of LDH in the serum determined for the group which received endotoxin boostering amount of 0.5 mg/body at the second administration and for the control group are shown in FIGS. 1 and 2, respectively. In FIGS. 1 and 2, the symbol o indicates the values obtained for each test animal in the group. Evaluation of the results was made based on the average value ± an error obtained by statistical treatment thereof. […] The sections of livers of the test animals of the same groups as above were observed using the fluorescence antibody method described in Journal of Experimental Medicine, Vol. 91, pp. 1-13 (1950)."}, "[2]": {"assay": "Acute toxicity (intravenous)", "details": "in vivo, rat", "procedure": "The acute toxicity of the compound obtained in Synthesis Example 2 was determined by administering it intravenously to rat. The LD50 value obtained was 500 mg/kg."}, "[3]": {"assay": "Tautomer equilibrium in solution (NMR)", "assay_type": "physicochemical", "details": "methanol or pyridine as solvent", "procedure": "Integration of the areas under the peak signals indicates a proportion of the former to the latter of about 73:27. After 2 hours the peak at 9.89 ppm increase further to an extent that the integrated proportions become about 70:30, and this proportion remains unchanged according to NMR analysis even after 63 hours. From this it follows that the compound represented by formula (I) and that represented by formula (II) are present in a molar proportion of about 7:3 in the solution. However, when methanol or pyridine is used as a solvent, the compound of formula (II) is not formed."}, "[4]": {"details": "microscopic observation of liver sections (×100), FIG. 3b"}, "[5]": {"details": "rat, 5 mg/body i.p. once a day for 6 days, endotoxin booster 0.5 mg/body, vs control group"}},
  "data": [
    {"smiles": "CC1CCC2C(C)(C)C(O)C(O)CC2(C)C12Cc1c(O)cc(C(=O)O)c(C=O)c1O2", "note": "(stereo not shown) [Synthesis Example 3, disodium 6,7-dihydroxy-2,5,5,8a-tetramethyl-1,2,3,4,4a,5,6,7,8,8a-decahydronaphthalene-1-spiro-2'-(6'-carboxylate-7'-formyl-4'-oxide-2',3'-dihydrobenzofuran)]", "values": [
      {"measurement": "feeling with respect to fatigue and loss of strength", "setting": "chronic hepatitis; 2 months, described by patient", "value": "considerably improved feeling"},
      {"measurement": "SB (serum bilirubin)", "setting": "chronic hepatitis; after administration (2 months), before: 2.6", "value": 1.5, "unit": "mg/dL"},
      {"measurement": "GPT", "setting": "chronic hepatitis; after administration (2 months), before: 143", "value": 67, "unit": "unit"},
      {"measurement": "GOT", "setting": "chronic hepatitis; after administration (2 months), before: 180", "value": 45, "unit": "unit"}
    ]},
    {"smiles": "CC1CCC2C(C)(C)C(O)C(O)CC2(C)C12Cc1c(O)cc(C=O)c(C=O)c1O2", "note": "(stereo not shown) [Synthesis Example 1, 6,7-dihydroxy-2,5,5,8a-tetramethyl-1,2,3,4,4a,5,6,7,8,8a-decahydronaphthalene-1-spiro-2'-(6',7'-diformyl-4'-hydroxy-2',3'-dihydrobenzofuran)]", "values": [
      {"measurement": "anti-complement activity", "setting": "complement", "value": "having an anti-complement activity"}
    ]},
    {"smiles": "CC1CCC2C(C)(C)C(O)C(O)CC2(C)C12Cc1c(O)cc3c(c1O2)C(O)OC3=O", "note": "(stereo not shown) [Synthesis Example 2, 4,8-dihydroxy-6-oxo-2,3,6,8-tetrahydro-furo[3,4-g]benzofuran-2-spiro-1'-(6',7'-dihydroxy-2',5',5',8'a-tetramethyl-1',2',3',4',4'a,5',6',7',8',8'a-decahydronaphthalene)]", "values": [
      {"measurement": "distribution of endotoxin in the liver", "setting": "[1]; fluorescence antibody method, liver sections, FIG. 4b", "value": "strongly localized in Kupffer cells but scarcely outside the cells"},
      {"measurement": "degree of cell degeneration of liver cells", "setting": "[1]; [4]", "value": "very slight"},
      {"measurement": "occurrence of damage of cells of liver", "setting": "[1]; [4]", "value": "significantly inhibited or such damage was substantially cured"},
      {"measurement": "level of GOT in the serum", "setting": "[1]; [5]", "value": "significantly lower than those of the control group"},
      {"measurement": "level of LDH in the serum", "setting": "[1]; [5]", "value": "significantly lower than those of the control group"},
      {"measurement": "occurrence of fulminant hepatitis (Schwarzman hepatitis)", "setting": "[1]; rat, 5 mg/body i.p. once a day for 6 days, from GOT and LDH levels", "value": "significantly inhibits the occurrence of fulminant hepatitis"},
      {"measurement": "LD50", "setting": "[2]", "value": 500, "unit": "mg/kg"},
      {"measurement": "formation of compound of formula (II) in solution", "setting": "[3]", "value": "not formed"}
    ]}
  ]
}
